Assay results published in paper PMC9321339, “Characterization in Inhibitory Effectiveness of Carbamazepine in Voltage-Gated Na^+ and Erg-Mediated K^+ Currents in a Mouse Neural Crest-Derived (Neuro-2a) Cell Line” (International Journal of Molecular Sciences, 2022).
Read-outs that look alike come from different tables or passages of the source.

Tested on: T1, voltage-gated Na+ (NaV) channels / INa in Neuro-2a cells (mainly NaV1.2, 1.3, 1.4 and 1.7)
T1 construct: gene Scn2a
Format: cell-based
Details: step -100 to -10 mV, 30 ms, Ca2+-free Tyrode with 10 mM TEA, 0.5 mM CdCl2, 20-25 °C

Question: Which IC50 (late (sustained) INa(L)) does the source give for `NC(=O)N1c2ccccc2C=Cc2ccccc21` [Carbamazepine, 5H-dibenzo[b,f]azepine-5-carboxamide] here?
Answer: 18 µM

Question: What about the IC50 (peak (transient) INa(T)) of the same molecule?
Answer: 56 µM
